Measurements reported in patent US9266835B2, “Quinoline derivatives useful as CB-1 inverse agonists” (JANSSEN PHARMACEUTICA NV, priority 2014, dated 2016).
Structures can show the parent of a compound that is named as a salt.

How the values were obtained:
[1] = biological target: Human CB2R (Cannabinoid receptor 2) (Homo sapiens (Human), UniProt P34972); assay: CB-2 in vitro cAMP assay (HTRF), inverse agonism; type: cell-based; settings: mean where tested more than once
[2] = biological target: Human CB1R (Cannabinoid receptor 1) (Homo sapiens (Human), UniProt P21554); assay: CB-1 in vitro cAMP assay (HTRF), inverse agonism; type: cell-based; settings: mean where tested more than once
Chain of Human CB1R (Cannabinoid receptor 1) (P21554 whole entry): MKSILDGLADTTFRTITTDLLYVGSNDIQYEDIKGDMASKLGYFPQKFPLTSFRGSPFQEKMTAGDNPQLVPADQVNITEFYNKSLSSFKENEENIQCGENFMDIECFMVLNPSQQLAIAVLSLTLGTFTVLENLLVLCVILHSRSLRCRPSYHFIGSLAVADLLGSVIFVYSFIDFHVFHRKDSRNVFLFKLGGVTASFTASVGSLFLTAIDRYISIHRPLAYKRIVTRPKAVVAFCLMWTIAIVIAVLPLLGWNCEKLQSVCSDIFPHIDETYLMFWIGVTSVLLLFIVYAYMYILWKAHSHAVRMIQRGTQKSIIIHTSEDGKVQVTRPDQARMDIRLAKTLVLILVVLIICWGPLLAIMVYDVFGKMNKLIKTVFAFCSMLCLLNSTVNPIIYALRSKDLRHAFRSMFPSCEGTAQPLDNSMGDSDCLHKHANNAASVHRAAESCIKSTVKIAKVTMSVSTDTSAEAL

Chain of Human CB2R (Cannabinoid receptor 2) (P34972 whole entry): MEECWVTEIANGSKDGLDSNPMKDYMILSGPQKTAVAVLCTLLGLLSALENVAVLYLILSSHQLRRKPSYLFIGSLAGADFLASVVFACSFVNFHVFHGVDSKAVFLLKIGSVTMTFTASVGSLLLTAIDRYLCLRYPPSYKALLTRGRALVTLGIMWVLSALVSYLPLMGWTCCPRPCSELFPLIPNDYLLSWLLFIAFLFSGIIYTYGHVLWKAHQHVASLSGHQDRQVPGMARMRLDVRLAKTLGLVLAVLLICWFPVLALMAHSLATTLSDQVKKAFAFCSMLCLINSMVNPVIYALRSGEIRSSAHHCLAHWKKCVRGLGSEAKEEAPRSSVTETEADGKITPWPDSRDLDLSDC

Compound | EC50 [1] [nM] | EC50 [2] [nM]
O=C(O)c1ccc(S(=O)(=O)N2CCC(Nc3cc(=O)[nH]c4ccc(C(c5ccc(Cl)cc5)c5ccc(Cl)cc5)cc34)CC2)s1 [Compound 130, 5-[4-([6-[bis(4-chlorophenyl)methyl]-2-hydroxyquinolin-4-yl]amino)piperidine-1-sulfonyl]thiophene-2-carboxylic acid, trifluoroacetic acid salt] | 690 | 113
O=C(O)c1ccc(S(=O)(=O)N2CCC(Nc3cc(=O)[nH]c4ccc(C(c5ccc(Cl)cc5)c5ccc(Cl)cc5)cc34)CC2)o1 [Compound 131, 5-{[4-({6-[Bis(4-chlorophenyl)methyl]-2-oxo-1,2-dihydroquinolin-4-yl}amino)piperidin-1-yl]sulfonyl}furan-2-carboxylic acid] | 3930 | 251
O=c1cc(Nc2ccc(-c3ccccc3)cc2)c2cc(C(c3ccc(Cl)cc3)c3ccc(Cl)cc3)ccc2[nH]1 [Compound 133, 4-(Biphenyl-4-ylamino)-6-[bis(4-chlorophenyl)methyl]-quinolin-2(1H)-one] | > 10000 | 73
Cc1ccc(Nc2cc(=O)[nH]c3ccc(C(c4ccc(Cl)cc4)c4ccc(Cl)cc4)cc23)cn1 [Compound 134, 6-[Bis(4-chlorophenyl)methyl]-4-[(6-methylpyridin-3-yl)amino]quinolin-2(1H)-one] | 6700 | 300
O=c1cc(NC2CCN(S(=O)(=O)C(F)(F)F)CC2)c2cc(C(c3ccc(Cl)cc3)N3CCN(c4ccccc4)CC3)ccc2[nH]1 (stereo not shown) [Compound 137, 6-((4-chlorophenyl)(4-phenylpiperazin-1-yl)methyl)-4-((1-((trifluoromethyl)sulfonyl)piperidin-4-yl)amino)quinolin-2(1H)-one] | > 10000 | 290
O=C(c1ccc(Nc2cc(=O)[nH]c3ccc(C(c4ccc(Cl)cc4)c4ccc(Cl)cc4)cc23)cc1F)N1CCCC1 [Compound 138] | 750 | 227
CCCCNc1cc(C(c2ccc(Cl)cc2)c2ccc(Cl)cc2)cc2c(NC3CCN(S(=O)(=O)C(F)(F)F)CC3)cc(=O)n(C)c12 [Compound 139, 6-[bis(4-chlorophenyl)methyl]-8-(butylamino)-1-methyl-4-[[1-(trifluoromethane)sulfonylpiperidin-4-yl]amino]-1,2-dihydroquinolin-2-one] | > 10000 | > 10000
COCCCc1cc(C(c2ccc(Cl)cc2)c2ccc(Cl)cc2)cc2c(NC3CCN(S(=O)(=O)C(F)(F)F)CC3)cc(=O)[nH]c12 [Compound 140, 6-(bis(4-chlorophenyl)methyl)-8-(3-methoxypropyl)-4-((1-((trifluoromethyl)sulfonyl)piperidin-4-yl)amino)quinolin-2(1H)-one] | 60 | 13
NCCCCNc1cc(C(c2ccc(Cl)cc2)c2ccc(Cl)cc2)cc2c(NC3CCN(S(=O)(=O)C(F)(F)F)CC3)cc(=O)[nH]c12 [Compound 141, 8-((4-aminobutyl)amino)-6-(bis(4-chlorophenyl)methyl)-4-((1-((trifluoromethyl)sulfonyl)piperidin-4-yl)amino)quinolin-2(1H)-one] | > 10000 | 625
OC(c1ccc(Cl)cc1)(c1ccc(Cl)cc1)c1ccc2nccc(/C=C/c3ccccc3)c2c1 [Compound 501, (E)-bis(4-chlorophenyl)(4-styrylquinolin-6-yl)methanol] | > 10000 | > 10000
O=c1cc(/C=C/c2ccccc2)c2cc(C(c3ccc(Cl)cc3)c3ccc(Cl)cc3)ccc2[nH]1 [Compound 502] | > 10000 | 580
Clc1ccc(C(c2ccc(Cl)cc2)c2ccc3nccc(/C=C/c4ccccc4)c3c2)cc1 [Compound 503, (E)-6-(bis(4-chlorophenyl)methyl)-4-styrylquinoline] | > 10000 | 191
COc1ccc(C(O)(c2ccc3nccc(/C=C/c4ccccc4)c3c2)c2nccs2)cc1 (stereo not shown) [Compound 504, (E)-(4-methoxyphenyl)(4-styrylquinolin-6-yl)(thiazol-2-yl)methanol] | > 10000 | 342
COc1ccc(C(c2ccc3nccc(/C=C/c4ccccc4)c3c2)c2nccs2)cc1 (stereo not shown) [Compound 505, (E)-2-((4-methoxyphenyl)(4-styrylquinolin-6-yl)methyl)thiazole] | > 10000 | 326
OC(c1ccc(Cl)cc1)(c1ccc2nccc(/C=C/c3ccccc3)c2c1)c1cccs1 (stereo not shown) [Compound 506, (4-Chlorophenyl){4-[(E)-2-phenylethenyl]quinolin-6-yl}thiophen-2-ylmethanol] | > 10000 | > 10000
OC(c1ccc(Cl)cc1)(c1ccsc1)c1ccc2nccc(/C=C/c3ccccc3)c2c1 (stereo not shown) [Compound 507, (4-Chlorophenyl){4-[(E)-2-phenylethenyl]quinolin-6-yl}thiophen-3-ylmethanol] | > 10000 | 5480

Compound | EC50 [1] [nM] | EC50 [2] [nM]
Clc1ccc(C(c2ccc3nccc(/C=C/c4ccccc4)c3c2)c2cccs2)cc1 (stereo not shown) [Compound 508, 6-[(4-Chlorophenyl)(thiophen-2-yl)methyl]-4-[(E)-2-phenylethenyl]quinoline] | > 10000 | 375
Clc1ccc(C(c2ccsc2)c2ccc3nccc(/C=C/c4ccccc4)c3c2)cc1 (stereo not shown) [Compound 509, 6-[(4-Chlorophenyl)(thiophen-3-yl)methyl]-4-[(E)-2-phenylethenyl]quinoline] | > 10000 | 140
Clc1ccc(C(c2ccc3nccc(/C=C/c4ccccc4)c3c2)c2nccs2)cc1 (stereo not shown) [Compound 511, (E)-2((4-chlorophenyl)(4-styrylquinolin-6-yl)methyl)thiazole] | > 10000 | 136
COc1ccc(C(O)(c2ccc(Cl)cc2)c2ccc3nc(OC(C)(C)C)cc(/C=C/c4ccccc4)c3c2)cc1 (stereo not shown) [Compound 512, (E)-(2-(tert-butoxy)-4-styrylquinolin-6-yl)(4-chlorophenyl)(4-methoxyphenyl)methanol] | > 10000 | > 10000
CC(C)(C)OC(=O)N1CC=C(c2ccnc3ccc(C(c4ccc(Cl)cc4)c4nccs4)cc23)CC1 (stereo not shown) [Compound 513, tert-butyl 4-(6-((4-chlorophenyl)(thiazol-2-yl)methyl)quinolin-4-yl)-5,6-dihydropyridine-1(2H)-carboxylate] | > 10000 | 1500
COc1ccc(C(c2ccc(Cl)cc2)c2ccc3[nH]c(=O)cc(/C=C/c4ccccc4)c3c2)cc1 (stereo not shown) [Compound 514, (E)-6-((4-chlorophenyl)(4-methoxyphenyl)methyl)-4-styrylquinolin-2(1H)-one] | > 10000 | 426
O=c1cc(Cc2ccc(OC(F)(F)F)cc2)c2cc(C(c3ccc(Cl)cc3)c3nccs3)ccc2[nH]1 (stereo not shown) [Compound 515, 6-((4-chlorophenyl)(thiazol-2-yl)methyl)-4-(4-(trifluoromethoxy)benzyl)quinolin-2(1H)-one] | > 10000 | 366
OC(c1ccc(Cl)cc1)(c1ccc2nccc(/C=C/c3ccccc3)c2c1)c1cscn1 (stereo not shown) [Compound 517, (E)-(4-chlorophenyl)(4-styrylquinolin-6-yl)(thiazol-4-yl)methanol] | 340 | 884
CC(C)(C)Oc1cc(/C=C/c2cccc(F)c2)c2cc(C(O)(c3ccc(Cl)cc3)c3ccsc3)ccc2n1 (stereo not shown) [Compound 518, (E)-(2-(tert-butoxy)-4-(3-fluorostyryl)quinolin-6-yl)(4-chlorophenyl)(thiophen-3-yl)methanol] | 540 | > 10000
O=S(=O)(Oc1cc(C2=CCN(S(=O)(=O)C(F)(F)F)CC2)c2cc(C(c3ccc(Cl)cc3)c3ccc(Cl)cc3)ccc2n1)C(F)(F)F [Compound 519, 6-(bis(4-chlorophenyl)methyl)-4-(1-((trifluoromethyl)sulfonyl)-1,2,3,6-tetrahydropyridin-4-yl)quinolin-2-yl trifluoromethanesulfonate] | 40 | > 10000
Clc1ccc(C(c2ccc3nccc(/C=C/c4ccccc4)c3c2)c2cscn2)cc1 (stereo not shown) [Compound 520, 6-[(4-Chlorophenyl)(1,3-thiazol-4-yl)methyl]-4-[(E)-2-phenylethenyl]quinoline] | > 10000 | 169
FC(F)(F)c1ccc(/C=C/c2ccnc3ccc(C(c4ccc(Cl)cc4)c4ccc(Cl)cc4)cc23)cc1 [Compound 521, 6-[Bis(4-chlorophenyl)methyl]-4-{(E)-2-[4-(trifluoromethyl)phenyl]-ethenyl}quinoline] | > 10000 | 213
CC(=O)N1CCN(c2cc(OS(=O)(=O)C(F)(F)F)nc3ccc(C(c4ccc(Cl)cc4)c4nccs4)cc23)CC1 (stereo not shown) [Compound 522, 4-(4-Acetylpiperazin-1-yl)-6-[(4-chlorophenyl)(1,3-thiazol-2-yl)methyl]quinolin-2-yl trifluoromethanesulfonate] | > 10000 | > 10000
O=S(=O)(N1CCC(Nc2ccnc3c(Br)cc(C(c4ccc(Cl)cc4)c4ccc(Cl)cc4)cc23)CC1)C(F)(F)F [Compound 524, 6-(bis(4-chlorophenyl)methyl)-8-bromo-N-(1-((trifluoromethyl)sulfonyl)piperidin-4-yl)quinolin-4-amine] | 180 | 12
CCOC(=O)CCCNc1cc(C(O)(c2ccc(Cl)cc2)c2ccc(Cl)cc2)cc2c(NC3CCN(S(=O)(=O)C(F)(F)F)CC3)cc(OC(C)(C)C)nc12 [Compound 529, Ethyl 4-({6-[bis(4-chlorophenyl)(hydroxy)methyl]-2-tert-butoxy-4-({1-[(trifluoromethyl)sulfonyl]-piperidin-4-yl}amino)quinolin-8-yl}amino)butanoate] | > 10000 | > 10000
COCCOc1cc(NC2CCN(S(=O)(=O)C(F)(F)F)CC2)c2cc(C(c3ccc(Cl)cc3)c3ccc(Cl)cc3)ccc2n1 [Compound 530, 6-(bis(4-chlorophenyl)methyl)-2-(2-methoxyethoxy)-N-(1-((trifluoromethyl)sulfonyl)piperidin-4-yl)quinolin-4-amine] | > 10000 | 23
